Assay results as given in ChEMBL document CHEMBL3992518, “Peptide Macrocycle Inhibitor of Coagulation Factor XII with Subnanomolar Affinity and High Target Selectivity” (J Med Chem, 2017).
*1 amine or outer side, *2 acyl side, *3 side chain or, on linkers, in order; H or OH if unused. Where a SMILES comes first, the peptide text is derived from it. Bridges are numbered along the chain shown (N, C = ends). TATA = O=C(CC[*:1])N1CN(C(=O)CC[*:2])CN(C(=O)CC[*:3])C1

Target: T1, Coagulation factor XII (Homo sapiens, UniProt P00748)
T1 sequence (P00748 whole entry): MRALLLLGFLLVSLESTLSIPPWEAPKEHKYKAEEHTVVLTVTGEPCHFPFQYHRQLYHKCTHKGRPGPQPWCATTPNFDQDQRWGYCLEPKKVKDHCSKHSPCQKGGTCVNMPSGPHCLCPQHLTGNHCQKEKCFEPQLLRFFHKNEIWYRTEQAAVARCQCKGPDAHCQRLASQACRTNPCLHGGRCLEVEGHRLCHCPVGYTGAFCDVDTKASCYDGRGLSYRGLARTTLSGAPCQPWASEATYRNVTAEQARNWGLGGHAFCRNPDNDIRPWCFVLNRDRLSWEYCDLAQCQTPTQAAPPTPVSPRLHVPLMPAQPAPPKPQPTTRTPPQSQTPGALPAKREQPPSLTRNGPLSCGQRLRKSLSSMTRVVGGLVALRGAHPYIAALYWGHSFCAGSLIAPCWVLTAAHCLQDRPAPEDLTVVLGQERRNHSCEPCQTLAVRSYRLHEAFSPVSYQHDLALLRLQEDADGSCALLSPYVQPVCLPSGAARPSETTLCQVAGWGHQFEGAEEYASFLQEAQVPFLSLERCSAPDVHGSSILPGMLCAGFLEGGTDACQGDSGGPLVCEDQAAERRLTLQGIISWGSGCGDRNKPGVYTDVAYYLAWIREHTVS
Experiment: Inhibition of human beta factor 12a using fluorogenic substrate Boc-Gln-Gly-Arg-AMC preincubated for 10 mins followed by addition of substrate measured every min for 30 mins

Structure (SMILES)	Ki [nM]
CC(C)C[C@@H]1NC(=O)[C@H](CCC(N)=O)NC(=O)[C@H](CCCNC(=N)N)NC(=O)[C@@H]2CSCCC(=O)N3CN(CN(C3)C(=O)CCSC[C@H](NC(=O)[C@@H](N)CCCCN)C(=O)N[C@@H](Cc3ccccc3)C(=O)N[C@@H](CCCNC(=N)N)C(=O)N[C@@H](CC(C)C)C(=O)N3CCC[C@H]3C(=O)N2)C(=O)CCSC[C@@H](C(=O)N[C@@H](CCCNC(=N)N)C(=O)O)NC(=O)[C@H](CCCNC(=N)N)NC1=O (H-KCFRLPCRQLRCR-OH; linker 2-7-12 via TATA)	9
CC[C@H](C)[C@@H]1NC(=O)[C@H](CCCNC(=N)N)NC(=O)[C@H](Cc2ccccc2)NC(=O)[C@@H](NC(=O)[C@@H](N)CCCNC(=N)N)CSCCC(=O)N2CN3CN(C2)C(=O)CCSC[C@H](NC(=O)[C@@H]2CCCN2C1=O)C(=O)N[C@@H](CCCNC(=N)N)C(=O)N[C@@H](CCC(N)=O)C(=O)N[C@@H](CC(C)C)C(=O)N[C@@H](CCCNC(=N)N)C(=O)N[C@H](C(=O)N[C@@H](CCCNC(=N)N)C(=O)N[C@@H](Cc1c[nH]c2ccccc12)C(=O)O)CSCCC3=O (H-RCFRIPCRQLRCRW-OH; linker 2-7-12 via TATA)	890
CCC(CC)C1NC(=O)[C@H](CCC(N)=O)NC(=O)[C@H](CCCNC(=N)N)NC(=O)[C@@H]2CSCCC(=O)N3CN(CN(C3)C(=O)CCSC[C@H](NC(=O)[C@@H](N)CCCNC(=N)N)C(=O)N[C@@H](Cc3ccccc3)C(=O)N[C@@H](CCCNC(=N)N)C(=O)N[C@@H](CC(C)C)C(=O)N3CCC[C@H]3C(=O)N2)C(=O)CCSC[C@@H](C(=O)N[C@@H](CCCNC(=N)N)C(=O)N[C@@H](Cc2c[nH]c3ccccc23)C(=O)O)NC(=O)[C@H](CCCNC(=N)N)NC1=O (some centres not stated)	38
CC[C@H](C)[C@H](N)C(=O)N[C@H]1CSCCC(=O)N2CN3CN(C2)C(=O)CCSC[C@H](NC(=O)[C@@H]2CCCN2C(=O)[C@H](CC(C)C)NC(=O)[C@H](CCCNC(=N)N)NC(=O)[C@H](Cc2ccccc2)NC1=O)C(=O)N[C@@H](CCCNC(=N)N)C(=O)N[C@@H](CCC(N)=O)C(=O)N[C@@H](CC(C)C)C(=O)N[C@@H](CCCNC(=N)N)C(=O)N[C@H](C(=O)N[C@@H](CCCNC(=N)N)C(=O)O)CSCCC3=O (H-ICFRLPCRQLRCR-OH; linker 2-7-12 via TATA)	83
CCC[C@@H]1NC(=O)[C@H](CCC(N)=O)NC(=O)[C@H](CCCNC(=N)N)NC(=O)[C@@H]2CSCCC(=O)N3CN(CN(C3)C(=O)CCSC[C@H](NC(=O)[C@@H](N)CCCNC(=N)N)C(=O)N[C@@H](Cc3ccccc3)C(=O)N[C@@H](CCCNC(=N)N)C(=O)N[C@@H](CC(C)C)C(=O)N3CCC[C@H]3C(=O)N2)C(=O)CCSC[C@@H](C(=O)N[C@@H](CCCNC(=N)N)C(=O)N[C@@H](Cc2c[nH]c3ccccc23)C(=O)O)NC(=O)[C@H](CCCNC(=N)N)NC1=O	72
CC(C)C[C@@H]1NC(=O)[C@H](CCCNC(=N)N)NC(=O)[C@H](Cc2ccccc2)NC(=O)[C@@H](NC(=O)[C@@H](N)CCCNC(=N)N)CSCCC(=O)N2CN3CN(C2)C(=O)CCSC[C@@H](C(=O)N[C@@H](CCCNC(=N)N)C(=O)N[C@@H](Cc2c[nH]c4ccccc24)C(=O)O)NC(=O)[C@H](CCCNC(=N)N)NC(=O)[C@H](CC(C)C)NC(=O)[C@H](CCC(N)=O)NC(=O)[C@H](CCCNC(=N)N)NC(=O)[C@H](CSCCC3=O)NC(=O)[C@H](C)NC1=O (H-RCFRLACRQLRCRW-OH; linker 2-7-12 via TATA)	19.6
CC(C)C[C@@H]1NC(=O)[C@H](CC(=O)O)NC(=O)[C@H](CCCNC(=N)N)NC(=O)[C@@H]2CSCCC(=O)N3CN(CN(C3)C(=O)CCSC[C@H](NC(=O)[C@@H](N)CCCNC(=N)N)C(=O)N[C@@H](Cc3ccccc3)C(=O)N[C@@H](CCCNC(=N)N)C(=O)N[C@@H](CC(C)C)C(=O)N3CCC[C@H]3C(=O)N2)C(=O)CCSC[C@@H](C(=O)N[C@@H](CCCNC(=N)N)C(=O)N[C@@H](Cc2c[nH]c3ccccc23)C(=O)O)NC(=O)[C@H](CCCNC(=N)N)NC1=O (H-RCFRLPCRDLRCRW-OH; linker 2-7-12 via TATA)	550
CC(C)C[C@@H]1NC(=O)[C@H](CCC(N)=O)NC(=O)[C@H](CCCNC(=N)N)NC(=O)[C@@H]2CSCCC(=O)N3CN(CN(C3)C(=O)CCSC[C@H](NC(=O)[C@@H](N)CCCNC(=N)N)C(=O)N[C@@H](CC(C)C)C(=O)N[C@@H](CCCNC(=N)N)C(=O)N[C@@H](CC(C)C)C(=O)N3CCC[C@H]3C(=O)N2)C(=O)CCSC[C@@H](C(=O)N[C@@H](CCCNC(=N)N)C(=O)N[C@@H](Cc2c[nH]c3ccccc23)C(=O)O)NC(=O)[C@H](CCCNC(=N)N)NC1=O (H-RCLRLPCRQLRCRW-OH; linker 2-7-12 via TATA)	28
CC(C)C[C@@H]1NC(=O)[C@H](CCCNC(=N)N)NC(=O)[C@H](Cc2ccccc2)NC(=O)[C@@H](NC(=O)[C@@H](N)CCCNC(=N)N)CSCCC(=O)N2CN3CN(C2)C(=O)CCSC[C@H](NC(=O)[C@@H]2CCCN2C1=O)C(=O)N[C@@H](CCCNC(=N)N)C(=O)N[C@@H](CCC(N)=O)C(=O)N[C@@H](C(C)C)C(=O)N[C@@H](CCCNC(=N)N)C(=O)N[C@H](C(=O)N[C@@H](CCCNC(=N)N)C(=O)N[C@@H](Cc1c[nH]c2ccccc12)C(=O)O)CSCCC3=O (H-RCFRLPCRQVRCRW-OH; linker 2-7-12 via TATA)	326

Other lines, results leading:

Ki [nM]	Structure (SMILES)
> 1000	CC(C)C[C@@H]1NC(=O)[C@H](CCC(N)=O)NC(=O)[C@H](CCCNC(=N)N)NC(=O)[C@@H]2CSCCC(=O)N3CN(CN(C3)C(=O)CCSC[C@H](NC(=O)[C@@H](N)CCCNC(=N)N)C(=O)N[C@@H](Cc3ccc(-c4ccccc4)cc3)C(=O)N[C@@H](CCCNC(=N)N)C(=O)N[C@@H](CC(C)C)C(=O)N3CCC[C@H]3C(=O)N2)C(=O)CCSC[C@@H](C(=O)N[C@@H](CCCNC(=N)N)C(=O)N[C@@H](Cc2c[nH]c3ccccc23)C(=O)O)NC(=O)[C@H](CCCNC(=N)N)NC1=O
366	CC(C)C[C@@H]1NC(=O)[C@H](CCC(N)=O)NC(=O)[C@H](CCCNC(=N)N)NC(=O)[C@@H]2CSCCC(=O)N3CN(CN(C3)C(=O)CCSC[C@H](NC(=O)[C@@H](N)CCCNC(=N)N)C(=O)N[C@@H](CCc3ccccc3)C(=O)N[C@@H](CCCNC(=N)N)C(=O)N[C@@H](CC(C)C)C(=O)N3CCC[C@H]3C(=O)N2)C(=O)CCSC[C@@H](C(=O)N[C@@H](CCCNC(=N)N)C(=O)N[C@@H](Cc2c[nH]c3ccccc23)C(=O)O)NC(=O)[C@H](CCCNC(=N)N)NC1=O
39	Cc1ccc(C[C@@H]2NC(=O)[C@@H](NC(=O)[C@@H](N)CCCNC(=N)N)CSCCC(=O)N3CN4CN(C3)C(=O)CCSC[C@H](NC(=O)[C@@H]3CCCN3C(=O)[C@H](CC(C)C)NC(=O)[C@H](CCCNC(=N)N)NC2=O)C(=O)N[C@@H](CCCNC(=N)N)C(=O)N[C@@H](CCC(N)=O)C(=O)N[C@@H](CC(C)C)C(=O)N[C@@H](CCCNC(=N)N)C(=O)N[C@H](C(=O)N[C@@H](CCCNC(=N)N)C(=O)N[C@@H](Cc2c[nH]c3ccccc23)C(=O)O)CSCCC4=O)cc1
40	Cc1ccccc1C[C@@H]1NC(=O)[C@@H](NC(=O)[C@@H](N)CCCNC(=N)N)CSCCC(=O)N2CN3CN(C2)C(=O)CCSC[C@H](NC(=O)[C@@H]2CCCN2C(=O)[C@H](CC(C)C)NC(=O)[C@H](CCCNC(=N)N)NC1=O)C(=O)N[C@@H](CCCNC(=N)N)C(=O)N[C@@H](CCC(N)=O)C(=O)N[C@@H](CC(C)C)C(=O)N[C@@H](CCCNC(=N)N)C(=O)N[C@H](C(=O)N[C@@H](CCCNC(=N)N)C(=O)N[C@@H](Cc1c[nH]c2ccccc12)C(=O)O)CSCCC3=O
114	CC(C)C[C@@H]1NC(=O)[C@H](CCC(N)=O)NC(=O)[C@H](CCCNC(=N)N)NC(=O)[C@@H]2CSCCC(=O)N3CN(CN(C3)C(=O)CCSC[C@H](NC(=O)[C@@H](N)CCCNC(=N)N)C(=O)N[C@@H](C/C=C/c3ccccc3)C(=O)N[C@@H](CCCNC(=N)N)C(=O)N[C@@H](CC(C)C)C(=O)N3CCC[C@H]3C(=O)N2)C(=O)CCSC[C@@H](C(=O)N[C@@H](CCCNC(=N)N)C(=O)N[C@@H](Cc2c[nH]c3ccccc23)C(=O)O)NC(=O)[C@H](CCCNC(=N)N)NC1=O
> 3000	CC(C)C[C@@H]1NC(=O)[C@H](CCC(=O)O)NC(=O)[C@H](CCCNC(=N)N)NC(=O)[C@@H]2CSCCC(=O)N3CN(CN(C3)C(=O)CCSC[C@H](NC(=O)[C@@H](N)CCCNC(=N)N)C(=O)N[C@@H](Cc3ccccc3)C(=O)N[C@@H](CCCNC(=N)N)C(=O)N[C@@H](CC(C)C)C(=O)N3CCC[C@H]3C(=O)N2)C(=O)CCSC[C@@H](C(=O)N[C@@H](CCCNC(=N)N)C(=O)N[C@@H](Cc2c[nH]c3ccccc23)C(=O)O)NC(=O)[C@H](CCCNC(=N)N)NC1=O (H-RCFRLPCRELRCRW-OH; linker 2-7-12 via TATA)
6.8	CC(C)C[C@@H]1NC(=O)[C@H](CCC(N)=O)NC(=O)[C@H](CCCNC(=N)N)NC(=O)[C@@H]2CSCCC(=O)N3CN(CN(C3)C(=O)CCSC[C@H](NC(=O)[C@@H](N)CCCNC(=N)N)C(=O)N[C@@H](Cc3csc4ccccc34)C(=O)N[C@@H](CCCNC(=N)N)C(=O)N[C@@H](CC(C)C)C(=O)N3CCC[C@H]3C(=O)N2)C(=O)CCSC[C@@H](C(=O)N[C@@H](CCCNC(=N)N)C(=O)N[C@@H](Cc2c[nH]c3ccccc23)C(=O)O)NC(=O)[C@H](CCCNC(=N)N)NC1=O
0.89	CC(C)C[C@@H]1NC(=O)[C@H](CCC(N)=O)NC(=O)[C@H](CCCNC(=N)N)NC(=O)[C@@H]2CSCCC(=O)N3CN(CN(C3)C(=O)CCSC[C@H](NC(=O)[C@@H](N)CCCNC(=N)N)C(=O)N[C@@H](Cc3ccc(F)cc3)C(=O)N[C@@H](CCCNC(=N)N)C(=O)N[C@@H](CC(C)C)C(=O)N3CCC[C@H]3C(=O)N2)C(=O)CCSC[C@@H](C(=O)N[C@@H](CCCNC(=N)N)C(=O)N[C@@H](Cc2c[nH]c3ccccc23)C(=O)O)NC(=O)[C@H](CCCNC(=N)N)NC1=O
